Reference: ChEMBL document CHEMBL1201862, “PubChem BioAssay data set” (2004)
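Assay format: 96-well plates, 48-hour exposure. Here, GI50 denotes the concentration required for 50% inhibition of growth.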 Activity calls are given as the source filed them. No stated cut-off is given here; in the data, active = GI50 up to about 1.1 µM and inactive = higher.

How the values were obtained:
Test in all cases: NCI tumour cell line growth inhibition, 48 h
[1] = test system: UO-31
[2] = test system: LOX IMVI
[3] = test system: EKVX
[4] = test system: SK-MEL-2
[5] = test system: CCRF-CEM
[6] = test system: OVCAR-8
[7] = test system: SNB-19
[8] = test system: ACHN
[9] = test system: DU-145
[10] = test system: MCF7
[11] = test system: OVCAR-5
[12] = test system: SF-268
[13] = test system: Hs-578T
[14] = test system: HL-60
[15] = test system: KM12
[16] = test system: NCI-H522
[17] = test system: K562
[18] = test system: UACC-257
[19] = test system: SF-539

Measured: GI50

Cc1cc(C)c(S(=O)(=O)N2CCN(S(=O)(=O)c3c(C)cc(C)cc3C)OCCCCCO2)c(C)c1
inactive: [1] > 100 µM | [2] > 100 µM | [3] > 100 µM | [4] > 100 µM | [5] > 100 µM | [6] > 100 µM | [7] > 100 µM | [8] > 100 µM | [9] > 100 µM | [10] > 100 µM | [11] > 100 µM | [12] > 100 µM | [13] > 100 µM | [14] > 100 µM | [15] > 100 µM | [16] > 100 µM | [17] > 100 µM | [18] > 100 µM

COC(=O)c1c(O)c(C#N)c2[nH]c3ccccc3n2c1=O
inactive: [1] > 100 µM | [3] > 100 µM | [4] > 100 µM | [5] > 100 µM | [6] > 100 µM | [7] > 100 µM | [8] > 100 µM | [9] > 100 µM | [10] > 100 µM | [19] > 100 µM | [11] > 100 µM | [12] > 100 µM | [13] > 100 µM | [14] > 100 µM | [15] > 100 µM | [16] > 100 µM | [17] > 100 µM | [18] > 100 µM

CC(C)(C)OC(=O)NCC(c1c[nH]c2ccccc12)c1c[nH]c2ccccc12
inactive: [1] 14.1 µM | [2] 17.9 µM | [3] 12.7 µM | [4] 18.4 µM | [5] 14.6 µM | [6] 16.7 µM | [7] 16.9 µM | [8] > 100 µM | [9] 15.6 µM | [10] 67.5 µM | [19] 17.7 µM | [11] 16.9 µM | [12] 17.1 µM | [13] 24.1 µM | [14] 14.4 µM | [15] 13.3 µM | [16] 18.2 µM | [18] 15.1 µM

CC(=O)OC[C@@H](OC(C)=O)[C@@H](OC(C)=O)[C@H]1OC[C@@H]2C[C@H]([C@H]1OC(C)=O)N(Cc1ccccc1)O2
inactive: [1] 61.7 µM | [2] > 100 µM | [3] > 100 µM | [4] > 100 µM | [5] > 100 µM | [7] > 100 µM | [8] > 100 µM | [9] > 100 µM | [10] > 100 µM | [19] > 100 µM | [11] > 100 µM | [12] > 100 µM | [13] > 100 µM | [14] > 100 µM | [15] > 100 µM | [17] > 100 µM | [18] > 100 µM

COc1cc(-c2c[nH]c3ccccc23)nc(-c2c[nH]c3ccccc23)n1
inactive: [1] 5.53 µM | [2] 4.84 µM | [3] 5.56 µM | [4] 4.94 µM | [5] 1.13 µM | [6] 4.97 µM | [7] 5.26 µM | [8] 2.61 µM | [9] 11.3 µM | [10] 3.56 µM | [19] 7.14 µM | [11] 8.13 µM | [12] 14.7 µM | [13] 16.3 µM | [14] 3.43 µM | [15] 4.18 µM | [17] 3.96 µM | [18] 8.91 µM

Clc1nc(Cl)c(Cl)c(Cl)n1
inactive: [1] 24.5 µM | [2] 11.3 µM | [3] 32.1 µM | [5] 5.15 µM | [6] 26.4 µM | [7] 22.3 µM | [8] 8.91 µM | [9] 16.7 µM | [10] 15.8 µM | [19] 23 µM | [11] 20.5 µM | [12] 17.2 µM | [13] 20.9 µM | [14] 13.5 µM | [15] 13.6 µM | [16] 15.9 µM | [17] 8.99 µM | [18] 16.3 µM

C/C(=N\NC(N)=S)C(CN1CCCCC1)C(C1=C(O)c2ccccc2OC1)c1ccccc1 (stereo unspecified)
inactive: [1] > 100 µM | [2] > 100 µM | [3] > 100 µM | [4] > 100 µM | [5] 61.1 µM | [6] > 100 µM | [7] > 100 µM | [8] > 100 µM | [9] > 100 µM | [10] > 100 µM | [19] > 100 µM | [11] > 100 µM | [12] > 100 µM | [13] > 100 µM | [14] 36.1 µM | [15] > 100 µM | [16] > 100 µM | [18] > 100 µM

CCCCN1C(=O)CC2[C@@H]3CCc4cc(OC)ccc4C3CC[C@]2(C)C1=O (stereo partly specified)
inactive: [1] > 10 µM | [2] > 10 µM | [3] > 10 µM | [4] > 10 µM | [5] > 10 µM | [6] > 10 µM | [7] > 10 µM | [8] > 10 µM | [9] > 10 µM | [10] > 10 µM | [19] > 10 µM | [11] > 10 µM | [12] > 10 µM | [13] > 10 µM | [14] 5.04 µM | [15] > 10 µM | [17] 7.93 µM | [18] > 10 µM

NC1C/C(=N\O)c2c(Cl)sc(Cl)c21 (stereo unspecified)
inactive: [1] 17.4 µM | [2] 3.11 µM | [3] 18.5 µM | [4] 19.7 µM | [5] 3.17 µM | [6] 15.2 µM | [7] 31.3 µM | [8] 21.8 µM | [9] 15.1 µM | [10] 11 µM | [19] 8.95 µM | [11] 21.7 µM | [12] 29.4 µM | [13] 59.3 µM | [14] 21.4 µM | [15] 12 µM | [17] 43.2 µM | [18] 17.1 µM

N/C(=N\c1ccc(Cl)cc1)c1ccccc1N
inactive: [1] > 100 µM | [2] > 100 µM | [3] > 100 µM | [5] > 100 µM | [6] > 100 µM | [7] > 100 µM | [8] > 100 µM | [9] > 100 µM | [10] > 100 µM | [11] > 100 µM | [12] > 100 µM | [13] > 100 µM | [14] > 100 µM | [15] > 100 µM | [16] > 100 µM | [17] > 100 µM | [18] > 100 µM

COc1cc2c(cc1OC)-c1cc3ccc(OC)c(OC)c3c[n+]1CC2 [PALMATINE CHLORIDE]
inactive: [1] > 100 µM | [3] > 100 µM | [4] 97.1 µM | [5] > 100 µM | [6] > 100 µM | [7] 15.5 µM | [8] > 100 µM | [9] > 100 µM | [10] > 100 µM | [19] > 100 µM | [11] > 100 µM | [12] 82.4 µM | [13] > 100 µM | [14] > 100 µM | [15] > 100 µM | [16] > 100 µM | [17] 52.4 µM | [18] 48.5 µM
